Source: US20260265262A1, “CDK2 INHIBITORS AND METHODS OF USING THE SAME” (Cedilla Therapeutics, Inc., priority 2022, published 2026)

Legend:
CDK2/Cyclin E1 = CDK2/Cyclin E1 (Homo sapiens, UniProt P24941); assay: ADP-Glo Luminescent Kinase Assay (CDK2/E1-37C); assay type: biochemical; settings: 0.18 nM CDK2/Cyclin E1, 100 μM ATP, 1.5 μM Histone H1, 37° C., 60 min pre-incubation; read-out: ADPGLO (CDK2/E1-37C): IC50
Method: Inhibition of CDK2/Cyclin E1 activity by the presence of small molecules was evaluated using ADP-Glo Luminescent Kinase Assay (Promega). Activated CDK2/Cyclin E1 was incubated with its substrate Histone H1 (SignalChem H10-54N) in the kinase reaction buffer (100 μM ATP, 50 mM HEPES pH 7.5, 10 mM MgCl2, 1 mM EDTA, 2 mM DTT, 0.01% Brij35, 0.5 mg/mL BSA). Luminescence was recorded with an Envision plate reader (PerkinElmer).
Dose titrations of inhibitors in 100% DMSO were combined with 0.36 nM CDK2/Cyclin E1 in reaction buffer. The mixtures were incubated for 60 minutes at 37° C. before the addition of ATP and Histone H1 substrate to initiate the kinase reaction. The final conditions were 0.18 nM CDK2/Cyclin E1, 100 μM ATP, and 1.5 μM Histone H1. The reactions were incubated at 37° C. for 90 minutes before being stopped with the addition of ADP-Glo reagent. This mixture was incubated at room temperature for 60 minutes before Kinase Detection Solution is added to generate luminescence. The stopped reactions were analyzed on an Envision plate reader. The conversion ratios were normalized to yield % activity, plotted against compound concentration, and fit to a four-parameter equation to determine the IC50 for each compound.

Kuramochi cells = assay: IncuCyte cell proliferation assay; assay type: cell-based; settings: Kuramochi cells labeled with mApple-H2B, cell count 0 to 72 hours, 20 μM top concentration; read-out: IncuCyte Kuramochi RB-WT: IC50
Method: IncuCyte® assay was used to measure the effect of disclosed compounds on cell proliferation. Fluorescent microscopy images of cells were taken immediately after compound treatment and 72 hours later. Image analysis software was used to obtain cell counts as a function of compound concentration. Kuramochi cells labeled with mApple-H2B were seeded on 384-well assay-ready plates. Plates were placed in an IncuCyte® (Sartorius) and scanned at 0 and 72 hours. IncuCyte® software was used to count the number of fluorescent nuclei in each well. The fold change in cell count from 0 to 72 hours in wells treated with increasing compounds concentrations (10 pts, 1/2 log dilution, 20 μM top concentration) was normalized to DMSO control wells. The normalized cell counts were fit with dose response curves and a […] was calculated.

C[C@@H](OCC12CCC(CC1)OC2)[C@H](NC(=O)[C@@H]1CN(C(=O)c2cnn(Cc3ccc(C(F)(F)F)cc3)c2)CC12CN(C(=O)C1(C(F)(F)F)CC1)C2)C(=O)N1CCC(c2ccc(C(=O)O)c(O)c2)CC1 [Example I-81, 4-(1-(O-((2-Oxabicyclo[2.2.2]octan-4-yl)methyl)-N—((S)-6-(1-(4-(trifluoromethyl)benzyl)-1H-pyrazole-4-carbonyl)-2-(1-(trifluoromethyl)cyclopropane-1-carbonyl)-2,6-diazaspiro[3.4]octane-8-carbonyl)-L-threonyl)piperidin-4-yl)-2-hydroxybenzoic acid]
IC50 (CDK2/Cyclin E1): < 0.5 µM
IC50 (Kuramochi cells): > 20 µM

COC(=O)c1ccc(N2CCN(C(=O)[C@@H](NC(=O)[C@@H]3CN(C(=O)c4cnn(Cc5ccccc5)c4)CC34CN(C(=O)[C@H]3CC3(C)C)C4)[C@@H](C)OCC3CCCCC3)CC2)cc1 [Example I-31]
IC50 (CDK2/Cyclin E1): < 0.5 µM
IC50 (Kuramochi cells): < 0.5 µM

C[C@@H](OCC12CCC(CC1)OC2)[C@H](NC(=O)[C@@H]1CN(C(=O)c2cnn(Cc3ccc(C(F)(F)F)cc3)c2)CC12CN(C(=O)C1(C(F)(F)F)CC1)C2)C(=O)N1CCC(C#N)CC1 [Example I-25, (S)—N-((2S,3R)-3-((2-oxabicyclo[2.2.2]octan-4-yl)methoxy)-1-(4-cyanopiperidin-1-yl)-1-oxobutan-2-yl)-6-(1-(4-(trifluoromethyl)benzyl)-1H-pyrazole-4-carbonyl)-2-(1-(trifluoromethyl)cyclopropane-1-carbonyl)-2,6-diazaspiro[3.4]octane-8-carboxamide]
IC50 (CDK2/Cyclin E1): < 0.5 µM
IC50 (Kuramochi cells): > 20 µM

C[C@@H](OCC12CCC(CC1)OC2)[C@H](NC(=O)[C@@H]1CN(C(=O)c2cnn(Cc3ccc(C(F)(F)F)cc3C(=O)O)c2)CC12CN(C(=O)C1(C(F)(F)F)CC1)C2)C(=O)N1CCC(c2nccs2)CC1 [Example I-83, ((4-((S)-8-(((2S,3R)-3-((2-oxabicyclo[2.2.2]octan-4-yl)methoxy)-1-oxo-1-(4-(thiazol-2-yl)piperidin-1-yl)butan-2-yl)carbamoyl)-2-(1-(trifluoromethyl)cyclopropane-1-carbonyl)-2,6-diazaspiro[3.4]octane-6-carbonyl)-1H-pyrazol-1-yl)methyl)-5-(trifluoromethyl)benzoic acid]
IC50 (CDK2/Cyclin E1): < 0.5 µM
IC50 (Kuramochi cells): > 20 µM

C[C@@H](OCC12CCC(CC1)OC2)[C@H](NC(=O)[C@@H]1CN(C(=O)c2cnn(Cc3ccccc3C(=O)O)c2)CC12CN(C(=O)C1(C(F)(F)F)CC1)C2)C(=O)N1CCNCC1 [Example I-109]
IC50 (CDK2/Cyclin E1): < 0.5 µM
IC50 (Kuramochi cells): > 20 µM

C[C@@H](OCC12CCC(CC1)OC2)[C@H](NC(=O)[C@@H]1CN(C(=O)c2cnc(O)cn2)CC12CN(C(=O)C1CC1(C)C)C2)C(=O)N1CCC(c2ccc(C(F)(F)F)c(C(=O)O)c2)CC1 (stereo partly drawn) [Example I-90, 5-(1-(O-((2-oxabicyclo[2.2.2]octan-4-yl)methyl)-n-((s)-2-((s)-2,2-dimethylcyclopropane-1-carbonyl)-6-(5-hydroxypyrazine-2-carbonyl)-2,6-diazaspiro[3.4]octane-8-carbonyl)-L-threonyl)piperidin-4-yl)-2-(trifluoromethyl)benzoic acid]
IC50 (CDK2/Cyclin E1): < 0.5 µM
IC50 (Kuramochi cells): > 20 µM

C[C@@H](OCC12CCC(CC1)OC2)[C@H](NC(=O)[C@@H]1CN(C(=O)c2cnn(Cc3ccc(C(F)(F)F)cc3)c2)CC12CN(C(=O)C1(C(F)(F)F)CC1)C2)C(=O)N1CCC(c2nccs2)CC1 [Example I-91, (S)—N-((2S,3R)-3-(2-oxabicyclo[2.2.2]octan-4-ylmethoxy)-1-oxo-1-(4-(thiazol-2-yl)piperidin-1-yl)butan-2-yl)-6-(1-(4-(trifluoromethyl)benzyl)-1H-pyrazole-4-carbonyl)-2-(1-(trifluoromethyl)cyclopropanecarbonyl)-2,6-diazaspiro[3.4]octane-8-carboxamide]
IC50 (CDK2/Cyclin E1): < 0.5 µM
IC50 (Kuramochi cells): 0.5 to 5 µM

C[C@@H](OCC12CCC(CC1)OC2)[C@@H](COC1CCC(c2ccc(C(=O)O)cc2)CC1)NC(=O)[C@@H]1CN(C(=O)c2cnn(Cc3ccc(C(F)(F)F)cc3)c2)CC12CN(C(=O)C1(C(F)(F)F)CC1)C2 (stereo partly drawn) [Example I-86, 4-(4-((2R,3R)-3-(2-oxabicyclo[2.2.2]octan-4-ylmethoxy)-2-((S)-6-(1-(4-(trifluoromethyl)benzyl)-1H-pyrazole-4-carbonyl)-2-(1-(trifluoromethyl)cyclopropanecarbonyl)-2,6-diazaspiro[3.4]octane-8-carboxamido)butoxy)cyclohexyl)benzoic acid]
IC50 (CDK2/Cyclin E1): 0.5 to 5 µM
IC50 (Kuramochi cells): > 20 µM

C[C@@H](OCC12CCC(CC1)OC2)[C@H](NC(=O)[C@H]1CN(C(=O)c2cnc(O)cn2)CC12CN(C(=O)C1(C(F)(F)F)CC1)C2)C(=O)N1CCC(c2ccc(C(=O)O)c(C(F)(F)F)c2)CC1 (single isomer, unassigned) [I-89 2nd, 4-(1-(O-((2-oxabicyclo[2.2.2]octan-4-yl)methyl)-N-(6-(5-hydroxypyrazine-2-carbonyl)-2-(1-(trifluoromethyl)cyclopropane-1-carbonyl)-2,6-diazaspiro[3.4]octane-8-carbonyl)-L-threonyl)piperidin-4-yl)-2-(trifluoromethyl)benzoic acid]
IC50 (CDK2/Cyclin E1): 0.5 to 5 µM
IC50 (Kuramochi cells): > 20 µM

COC(=O)[C@@H]1CN(C(=O)[C@@H](NC(=O)[C@@H]2CN(C(=O)c3cnn(Cc4ccc(C#N)cc4)c3)CC23CN(C(=O)C2(C(F)(F)F)CC2)C3)[C@@H](C)OCC23CCC(CC2)OC3)CCN1C(=O)OC(C)(C)C [Example I-114]
IC50 (CDK2/Cyclin E1): < 0.5 µM
IC50 (Kuramochi cells): 5 to 20 µM

CNC(=O)[C@@H](NC(=O)[C@@H]1CN(C(=O)c2cncs2)CC12CN(CC1CCCO1)C2)[C@@H](C)OCC12CCC(CC1)OC2 (some centres unmarked) [Example I-48]
IC50 (CDK2/Cyclin E1): 5 to 10 µM
IC50 (Kuramochi cells): > 20 µM

C[C@@H](OCC12CCC(CC1)OC2)[C@@H](COC1CCOCC1)NC(=O)[C@@H]1CN(C(=O)c2cncs2)CC12CN(C(=O)C1(C(F)(F)F)CC1)C2 [Example I-113, (8S)—N-[(2R,3R)-3-{2-oxabicyclo[2.2.2]octan-4-ylmethoxy}-1-(oxan-4-yloxy)butan-2-yl]-6-(1,3-thiazole-5-carbonyl)-2-[1-(trifluoromethyl)cyclopropanecarbonyl]-2,6-diazaspiro[3.4]octane-8-carboxamide]
IC50 (CDK2/Cyclin E1): 0.5 to 5 µM
IC50 (Kuramochi cells): > 20 µM

C[C@@H](OCC12CCC(CC1)OC2)[C@H](NC(=O)[C@@H]1CN(C(=O)c2cnn(Cc3ccc(C(F)(F)F)cc3)c2)CC12CN(C(=O)C1(C(F)(F)F)CC1)C2)C(=O)N1CCC(c2cc(F)c(C(=O)O)c(F)c2)CC1 [Example I-94]
IC50 (CDK2/Cyclin E1): < 0.5 µM
IC50 (Kuramochi cells): > 20 µM

C[C@@H](OCC1CCCCC1)[C@H](NC(=O)[C@@H]1CN(C(=O)c2cnn(Cc3ccccc3)c2)CC12CN(C(=O)[C@H]1CC1(C)C)C2)C(=O)N1CCCC[C@@H]1C(=O)O [Example I-35]
IC50 (CDK2/Cyclin E1): < 0.5 µM
IC50 (Kuramochi cells): > 20 µM

C[C@@H](OCC12CCC(CC1)OC2)[C@H](NC(=O)[C@@H]1CN(C(=O)c2cnn(Cc3ccc(C(F)(F)F)cc3)c2)CC12CN(C(=O)C1(C(F)(F)F)CC1)C2)C(=O)N1CCC(c2ccc(C(=O)O)cc2)CC1 [Example I-12]
IC50 (CDK2/Cyclin E1): < 0.5 µM
IC50 (Kuramochi cells): > 20 µM

C[C@@H](OCC12CCC(CC1)OC2)[C@H](NC(=O)[C@@H]1CN(C(=O)c2cnn(Cc3ccccc3C(=O)O)c2)CC12CN(C(=O)[C@H]1CC1(C)C)C2)C(=O)N1CCC2(CCNCC2)CC1 [Example I-96]
IC50 (CDK2/Cyclin E1): < 0.5 µM
IC50 (Kuramochi cells): > 20 µM

C[C@@H](OCC12CCC(CC1)OC2)[C@H](NC(=O)[C@@H]1CN(C(=O)c2cnn(Cc3ccccc3C(=O)OC(C)(C)C)c2)CC12CN(C(=O)C1(C(F)(F)F)CC1)C2)C(=O)N1CCN(C(=O)OC(C)(C)C)CC1 [Example I-108]
IC50 (CDK2/Cyclin E1): < 0.5 µM
IC50 (Kuramochi cells): 0.5 to 5 µM

COC(=O)CC1CN(C(=O)[C@@H]2CN(C(=O)c3cncs3)CC23CN(C(=O)[C@H]2CC2(C)C)C3)CCN1CC1CCCCC1 (some centres unmarked) [Example I-21]
IC50 (CDK2/Cyclin E1): > 10 µM
IC50 (Kuramochi cells): > 20 µM

C[C@@H](OCC12CCC(CC1)OC2)[C@H](NC(=O)[C@@H]1CN(C(=O)c2cnn(Cc3ccccc3C(=O)O)c2)CC12CN(C(=O)C1(C(F)(F)F)CC1)C2)C(=O)N1CCNC2(CC2)C1 [Example I-112, 2-((4-((S)-8-(((2S,3R)-3-((2-oxabicyclo[2.2.2]octan-4-yl)methoxy)-1-oxo-1-(4,7-diazaspiro[2.5]octan-7-yl)butan-2-yl)carbamoyl)-2-(1-(trifluoromethyl)cyclopropane-1-carbonyl)-2,6-diazaspiro[3.4]octane-6-carbonyl)-1H-pyrazol-1-yl)methyl)benzoic acid]
IC50 (CDK2/Cyclin E1): < 0.5 µM
IC50 (Kuramochi cells): > 20 µM
